The values that follow come from PMC13224100, “Esterase-Responsive Mitochondria-Targeted Hydropersulfide Donors Mitigate Doxorubicin Cardiotoxicity While Preserving Anticancer Activity” (Angewandte Chemie (International ed. in English), 2025).

Series [1] can be described thus: Aqueous stability of RSSH precursors in PBS. Particulars: PBS pH 7.4, 37 °C, over 9 h. The series is classed as physicochemical. How it is done: We synthesized AST-2 as an esterase-sensitive RSSH donor via reaction of N-acetylpenicillamine methyl ester with methoxycarbonyl sulfenyl chloride in dichloromethane at 0 °C, affording the product in 72% yield (see Scheme S1). We first evaluated the aqueous stability of AST-2 in phosphate-buffered saline (PBS, pH 7.4) at 37 °C.
APT-1 was synthesized in 93% overall yield via a one-pot two-step sequence: N-acetylpenicillamine methyl ester was reacted with chlorocarbonylsulfenyl chloride to afford an S-perthiocarbonyl chloride intermediate, which was subsequently treated with 2-acetoxy-N-methylethan-1-aminium chloride in the presence of triethylamine (see Supporting Information).
We first evaluated the aqueous stability of the mitochondria-targeted analogs AST-2-TPP and APT-1-TPP. […] APT-1-TPP similarly retained excellent stability, with < 5% degradation over 41 h (Figure S1D).

In series [2] the test system is H9c2 cells. Briefly: Cytoprotection against DOX-induced toxicity, CCK-8 assay. The class given is cell-based. Particulars: 4 h pretreatment, then 24 h co-treatment with DOX 5 μM. How it is done:
(§1) We evaluated the cytoprotective effects of RSSH precursors against DOX-induced cardiotoxicity in H9c2 cardiomyoblasts. First, we assessed the cytotoxicity of the RSSH donors (AST-2, APT-1, AST-2-TPP, and APT-1-TPP) using the CCK-8 assay.[24] […] To evaluate cytoprotection, H9c2 cells were pretreated with RSSH donors for 4 h, followed by 24 h co-treatment with DOX (5 μM). As expected, DOX alone reduced cell viability to ca. 50% (Figure 4a). […] Although both compounds were protective, no enhancement of potency was observed upon TPP conjugation. […] A distinctive feature of our study is the direct comparison between mitochondria-targeted and non-targeted RSSH donors. […] TPP conjugation only modestly enhances the cytoprotective effects of RSSH donors under our experimental conditions. This outcome may reflect the intrinsic high efficacy of non-targeted RSSH donors, thereby limiting the additional benefit of mitochondrial targeting.
(§2) Figure 4. Protective effects of RSSH donors against DOX-induced cytotoxicity in H9c2 cells. Cells were pretreated with RSSH donors for 4 h, followed by exposure to DOX (5 μM) for an additional 24 h. Cell viability was assessed using the cell counting Kit-8 (CCK-8) assay. Results are expressed as mean ± SEM, n = 3; *P < 0.05, **P < 0.01, ***P < 0.001, ****P < 0.0001. Ctl = vehicle-treated group (0.01% DMSO in medium). […]
(§3) Cytoprotective Effects of RSSH Donors against Doxorubicin Toxicity
(§4) Cytoprotective studies were performed as previously described.[8] Briefly, H9c2 cells, HepG2 cells, MDA-MB-468 cells, and MCF-7 cells were seeded at a density of 7 x 10^3 cells/well. […] Additionally, in the vehicle control group, cells were treated with medium (DMEM with 10% FBS) containing 0.01% DMSO only. The cells were then further incubated for an additional 4 h before being treated with DOX (10 μL/well, with final concentration of 5 μM). After a 24 h co-incubation with DOX, each well was carefully washed three times with PBS (pH 7.4) and 100 μL o f F B S-free medium containing 10% v/v CCK-8 (Dojindo) was added. The plates were then incubated for 1-2 h before measuring absorbance at […]
(§5) The relative % cell viability was calculated as 100 times the ratio of Abs450 (RSSH donor + DOX-exposed) to Abs450 (vehicle, non-DOX-exposed). Each treatment condition was performed in 6 technical replicates per biological replicate, and the experiment was independently repeated three times (n = 3 biological replicates). Data are presented as mean ± SEM. […]
On the technique in general: Tetrazolium assays rely on reduction of a dye to a coloured formazan, in cell work by metabolically active cells.

Series [3] has as its system H9c2 cells. Briefly: Mitochondrial membrane potential (TMRM) under DOX. The series is classed as cell-based. Particulars: DOX 5 μM, 24 h, TMRM. Here is the method: (§6) Figure 6. a) Basal sulfane sulfur (SS) levels in H9c2 cardiomyocyte, MDA-MB-468, MCF-7, and HepG2 cell lines as detected by SSP4 fluorescence. b) Representative images and c) basal levels of mitochondrial membrane potential (MMP) in H9c2 and cancer cells (MDA-MB-468, MCF-7, and HepG2). d) Impact of APT-1 (25 μM) or APT-1-TPP (25 μM) on MMP in DOX (5 μM)-treated (d) H9c2 and e) HepG2 cells. Impact of APT-1 (25 μM) and APT-1-TPP (25 μM) on ATP levels in DOX (5 μM)-treated f) H9c2 and g) HepG2 cells. Results are expressed as mean ± SEM, n = 3–6; *P < 0.05, **P < 0.01, ***P < 0.001, ****P < 0.0001. Significances in (a) and (c) are presented with respect to H9c2 cells.
(§7) We then examined how RSSH donors influence MMP during DOX exposure. As expected, DOX alone induced mitochondrial depolarization in H9c2 cells, reducing MMP to ca. 50% of control (Figure 6d). […] To complement these observations, we quantified intracellular ATP levels as a functional readout of mitochondrial activity. […]
Mitochondrial Membrane Potential Measurements
Mitochondrial membrane potential was measured using Image-iT™ TMRM Reagent (Cat#I34361, Invitrogen, USA) according to the manufacturer's protocols. […]
The cells were incubated for an additional 24 h. After completion of treatment, cells were washed with a warm clear DMEM medium (with 10% FBS) and incubated in culture media containing TMRM (working solution 100 nM) for 30 min at 37 °C. Cells were then washed with a warm clear FBS-free DMEM medium (3 times) before imaging. Images were obtained with Zeiss LSM 800 with AiryScan Confocal (λex = 548 nm, λem = 573 nm). During each experiment, 6 field images were obtained for each experimental group. Images were analyzed using Image J software, and all cells in each image were selected for fluorescence intensity measurement (cell-free space was also measured as blank). H9c2 signal intensity was set to 100% and signal intensity for all the other cell lines was shown as a percentage of that of H9c2.
The experiments were independently repeated three times (n = 3 biological replicates). Data are […]
Figure S24. Representative TMRM images for mitochondrial membrane potential (MMP) in H9c2 and HepG2 cells with APT-1 and APT-1-TPP treatment under DOX stress. Ctl = vehicle (medium with 0.01% […]
(1 picture or pasted object on this page, not shown here)

A short description of series [4]: Cytoprotection against DOX-induced toxicity, CCK-8 assay. The class given is cell-based. Particulars: rat, H9c2 cells; DOX 5 μM, 24 h, CCK-8; read-out: cell viability, DOX alone. Here is the method:
as §1, §2, §3, §4, §5

For series [5], the system named is H9c2 cells. Briefly: Intracellular ATP levels (CellTiter-Glo) under DOX. The series is classed as cell-based. Particulars: DOX 5 μM, 24 h. How it is done:
as §6, §7
Briefly, H9c2 cells and HepG2 cells were seeded in 96-well white-bottom plate (Alkali Scientific, SKU:TPW9096, TC-treated) at 5000 cells/well. After treatment (Ctrl, 5 μM DOX alone, 4 h pretreatment of 25 μM APT-1 + 24 h cotreatment with 5 μM DOX, and 4 h pretreatment of 25 μM APT-1-TPP + 24 h cotreatment with 5 μM DOX, in clear DMEM medium with 10% FBS), cells were equilibrated at rt for 30 min before CellTiter-Glo® reagent was added to each well. Plates were then placed on an orbital shaker for 2 min and incubated at rt for another 20 min.
Chemiluminescence was measured using Tecan plate reader (SPARK Part No. 30124664 Version 1.7, serial No. 1909010319). Cellular AT P concentration was calculated based on the AT P calibration curve and normalized to cell count. […] Each treatment condition was performed in 6 technical replicates per biological replicate, and the experiment was independently repeated three times (n = 3 biological replicates).
Data are presented as mean ± SEM. […]

Structures are written as SMILES.

On to `COC(=O)C(NC(C)=O)C(C)(C)SSC(=O)Oc1ccccc1` (centres unmarked) [AST-1, reference compound], for which the “decomposition (aqueous stability)” value in series [1] is “complete degradation”.

Take `COC(=O)[C@@H](NC(C)=O)C(C)(C)S` [Pen-SH, N-acetyl penicillamine methyl ester, reference compound]: the “protection against DOX-induced cytotoxicity” value with H9c2 cells [2] is recorded as “failed to mitigate DOX-induced cytotoxicity”. Consider `COc1cccc2c1C(=O)c1c(O)c3c(c(O)c1C2=O)C[C@@](O)(C(=O)CO)C[C@@H]3O[C@H]1C[C@H](N)[C@H](O)[C@H](C)O1` [DOX, Doxorubicin], for which the “MMP, DOX alone” value in the series with H9c2 cells [3] was “ca. 50 % of control”. In addition, the viability at 24 h, 5 µM in series [4] was approximately 50%. The “ATP level, DOX alone” value in the series on H9c2 cells [5] was “significantly depleted ATP”.

Usually viability stands for a read-out of living cells in per cent, often relative to untreated cells.
